Reference: patent US20060263355A1, “Treatment of bone disorders” (priority 2005, published 2006)

Tests used:
[1] = tested on: serological markers of inflammation and bone turnover; test: Serum biochemical markers in RA patients, Phase IIa study of rituximab; format: in vivo, human; settings: week 24 vs baseline, n = 40
Procedure: Serum samples were analyzed from RA+ patients who received either methotrexate (MTX) alone or MTX in combination with a single course of rituximab as part of a Phase IIa study of rituximab in RA to be reported elsewhere. The following markers were measured at baseline and Week 24: anti-CCP, CRP, S100, SAA, PINP and Osteocalcin (OC).
Biomarker data were analyzed using a non-parametric approach by comparing the percentage changes at 24-weeks from baseline in MTX group with the RTX+MTX group. The median percent change from baseline was plotted using the following formula: Pcfb1(marker)=((slope—lr*study time at last visit)/intercept—lr)*100
where slope_lr=slope of linear regression for each patient • intercept_lr=intercept of linear regression for each patient.

[2] = cited from earlier work; for effect in rat adjuvant / experimental arthritis: in vivo
[3] = ACR50 clinical response in RA, Phase IIa study of rituximab; format: in vivo, human; settings: two infusions of rituximab two weeks apart with ongoing MTX, versus MTX alone
[4] = Periodontal disease model (Example 5); format: in vivo; settings: applied to the periodontal pocket
Procedure: Rituximab may be used to regenerate bone and ligament lost to periodontal disease. In this model teeth showing 20% to 80% reduction of surrounding jaw bone are scaled, then a full-thickness gingival flap is made by an incision to expose the jaw bone and tooth root. The root is planed to remove bacterial plaque and calculus. Rituximab is applied to the periodontal pocket in a 2.5% HPMC gel at a dose of […] per tooth, or alternatively a solution of rituximab in 100 mM sodium acetate buffer, pH 6.0 is added to powdered bone to provide a dosage of […] rituximab per tooth. The material is thoroughly mixed and applied to the exposed periodontal pocket. In both cases, the gingival flap is then closed and held in place by suturing.

[5] = tested on: TRAP-positive osteoclasts; test: TRAP assay, osteoclasts formed in vitro (Example 4)
Procedure: TRAP refers to tartrate-resistant acid phosphatase that identifies osteoclast-like cells.
In this test, naphthol AS-MX phosphate 5 mg (Sigma, St. Louis, Mo.) is resolved in 0.5 ml of N,N-dimethylformamide (Wako). Thirty milligrams of fast red violet LB salt (Sigma) and 50 ml of 0.1 M sodium acetate buffer (pH 5.0) containing 50 mM sodium tartrate are added to the mixture (the TRAP-staining solution). Cells are fixed with 3.7% (v/v) formaldehyde in Ca^2− and Mg^2+-free phosphate-buffered saline for 10 min, fixed again with ethanol-acetone (50:50, v:v) for 1 min, and incubated with the TRAP-staining solution for 10 min. at room temperature. TRAP-positive osteoclasts appear as red cells. The incubation period should not exceed 10 min. since cells other than osteoclasts become weakly positive with time. After staining, cells are washed with distilled water, and TRAP-positive multinucleated cells having three or more nuclei are counted as osteoclasts under a microscope (Nicholson et al., J. Clin. Invest. 78: 355 (1986)).

[6] = Bone remodeling in animals (Example 2); settings: rats, subcutaneously once per day for 35 days
[7] = tested on: serological markers of inflammation and bone turnover; test: Serum biochemical markers in RA patients, Phase IIa study of rituximab; format: in vivo, human; settings: RA patients treated with rituximab
[8] = in vivo; cited from earlier work
B cells = settings: cynomolgus monkey; cited from earlier work
[9] = pH 5; cited from earlier work
[10] = in vivo; cited from earlier work; remark: listed apart in the source
lymphoid B-cell lines = settings: cited from earlier work

CN(Cc1cnc2nc(N)nc(N)c2n1)c1ccc(C(=O)N[C@@H](CCC(=O)O)C(=O)O)cc1 [MTX, methotrexate]
Anti-CCP (anti-citrullinated peptide antibody), median % change from baseline at 24 weeks [1]: −21.03%
CRP (C-reactive protein), median % change from baseline at 24 weeks [1]: −22.21%
OC (osteocalcin), median % change from baseline at 24 weeks [1]: 1.94%
P-1NP (procollagen type 1 N-terminal propeptide), median % change from baseline at 24 weeks [1]: −11.78%
S100 (S100 A8/9), median % change from baseline at 24 weeks [1]: −14.31%
SAA (serum amyloid A), median % change from baseline at 24 weeks [1]: −10.55%

O=P(O)(O)C(O)(Cc1cccnc1)P(=O)(O)O [NE58095]
effect in rat adjuvant / experimental arthritis [2]: prevents bone erosion and preserves joint architecture

O=P(O)(O)C(O)(Cn1ccnc1)P(=O)(O)O [Zoledronate]
effect in rat adjuvant / experimental arthritis [2]: protects against meta hyseal intracortical defets

O=P(O)(O)C(Cl)(Cl)P(=O)(O)O [clodronate]
effect in arthritis study at 20 mg/kg/day iv infusion ([2]; 20 mg/kg/day iv infusion): decreases pedal inflammation and bone resorption, but also inhibits bone formation
effect in rat adjuvant / experimental arthritis [2]: decrease weight loss, pedal inflammation, and bone resorption

CC(O)(P(=O)(O)O)P(=O)(O)O [etridronate]
effect in rat adjuvant / experimental arthritis [2]: decrease weight loss, pedal inflammation, and bone resorption

Rituximab + MTX: MTX in combination with a single course of rituximab
Anti-CCP (anti-citrullinated peptide antibody), median % change from baseline at 24 weeks [1]: −45.78%
CRP (C-reactive protein), median % change from baseline at 24 weeks [1]: −59.07%
OC (osteocalcin), median % change from baseline at 24 weeks [1]: 28.76%
P-1NP (procollagen type 1 N-terminal propeptide), median % change from baseline at 24 weeks [1]: 13.64%
S100 (S100 A8/9), median % change from baseline at 24 weeks [1]: −52.73%
SAA (serum amyloid A), median % change from baseline at 24 weeks [1]: −77.02%
ACR50 response at 24 weeks [3]: significantly higher clinical responses

humanized 2H7: humanized CD20 antibody, or antigen-binding fragment, comprising at least CDR H3 of SEQ ID NO:12 and human VHIII framework
regeneration of surrounding jaw bone versus placebo [4]: at least partially regenerated
performance as positive control in TRAP assay [5]: effective as a positive control
bone remodeling versus controls [6]: effective in enhancing bone remodeling over the controls

rituximab
regeneration of surrounding jaw bone versus placebo [4]: at least partially regenerated
Total immunoglobulin levels [7]: not affected significantly
patients experiencing at least one adverse event during their first infusion [8]: 36%
performance as positive control in TRAP assay [5]: effective as a positive control
B-cell depletion in vivo (B cells): depletes B cells from the peripheral blood, lymph nodes, and bone marrow
bone remodeling versus controls [6]: effective in enhancing bone remodeling over the controls
minimum shelf life [9]: two
patients admitted to the hospital for overnight observation after moderate fever and rigors following the first infusion [10]: 1 of 10
complement-dependent cytotoxicity (CDC) (lymphoid B-cell lines): lyses lymphoid B-cell lines
